39 compounds from patent US20130296311A1, “INHIBITORS OF HCV NS5A” (PRESIDIO PHARMACEUTICALS, INC., priority 2010, published 2013) can be followed below.

Where two headings read alike, the source gives them in different places.

The experiment relates to HCV 1b_Huh-Luc/Neo-ET cell line persistently expressing a bicistronic genotype 1b replicon in Huh 7 cells. The experiment can be described thus: HCV replicon assay (luciferase readout, 72 h). The class given is cell-based, HCV genotype 1b. As to conditions: Hepatitis C virus. Summed up: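 Huh 7 cells carrying a bicistronic genotype 1b luciferase/neo replicon received compound in triplicate the day after plating. After 72 h, replicon levels were read as Bright-Glo luciferase activity, expressed as % of control; EC50 was fitted with a four-parameter logistic and determined several times.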
Background: A replicon is a self-replicating genome or part of one, used to study replication in cells.

The mark [1] stands for this setting: Huh-7, 72 h, read-out: Inhibition of HCV genotype 1b.
The mark [2] stands for this setting: Huh-7, read-out: Inhibition of HCV genotype 1b.

As to `COC(=O)N[C@@H](C(=O)N1CCC[C@H]1c1ncc(-c2ccc(C#Cc3ccc(-c4cnc([C@@H]5CCCN5C(=O)[C@H](NC(=O)N5CCC[C@H](O)C5)c5ccccc5)[nH]4)cc3)cc2)[nH]1)c1ccccc1` [Compound 263], under setting [1], the EC50 is less than 1 nM.

On to `COC(=O)N[C@@H](C(=O)N1CCC[C@H]1c1ncc(-c2ccc(C#Cc3ccc(-c4cnc([C@@H]5CCCN5C(=O)OCc5ccccc5)[nH]4)cc3)cc2)[nH]1)c1ccccc1` [Compound 200], for which, under setting [1], the EC50 was less than 1 nM.

As for `COC(=O)N[C@H](C(=O)N1CCC[C@H]1c1nc2ccc(C#Cc3ccc(-c4cnc([C@@H]5CCCN5C(=O)[C@@H](NC(=O)OC)C5CCOCC5)[nH]4)cc3)cc2[nH]1)C(C)C` [Compound 1237], the EC50 under setting [2] was less than 1 nM.

Turning to `COC(=O)NCC(=O)N1CCC[C@H]1c1ncc(-c2ccc(C#Cc3ccc4nc([C@@H]5CCCN5C(=O)CNC(=O)OC)[nH]c4c3)cc2)[nH]1` [Compound 1049], the EC50 under setting [1] lay in the range of 10 to 999 nM.

Regarding `[2H]C([2H])([2H])C([2H])(C([2H])([2H])[2H])[C@@]([2H])(NC(=O)OC)C(=O)N1CCC[C@H]1c1nc2ccc(C#Cc3ccc4c(ccc5nc([C@@H]6CCCN6C(=O)[C@@H](NC(=O)OC)C(C)C)[nH]c54)c3)cc2[nH]1` [Compound 1278], the EC50 under setting [2] was less than 1 nM.

With `COC(=O)N[C@H](C(=O)N1CCC[C@H]1c1ncc(-c2ccc(C#Cc3ccc(-c4cnc([C@@H]5CCCN5C(=O)[C@@H](NC(=O)OC)C(C)C)[nH]4)cc3C(=O)OC)cc2)[nH]1)C(C)C` [Compound 1200], under setting [2], the EC50 is less than 1 nM.

Consider `O=C(N[C@@H](C(=O)N1CCC[C@H]1c1ncc(-c2ccc(C#Cc3ccc(-c4cnc([C@@H]5CCCN5C(=O)[C@H](NC(=O)N5CCCC5)c5ccccc5)[nH]4)cc3)cc2)[nH]1)c1ccccc1)N1CCCC1` [Compound 249], for which the EC50 under setting [1] is less than 1 nM.

`COC(=O)N[C@H](C(=O)N1CCC[C@H]1c1nc(-c2cnc3cc(C#Cc4cnc([C@@H]5CCCN5C(=O)[C@@H](NC(=O)OC)C(C)C)[nH]4)ccc3c2)c[nH]1)C(C)C` [Compound 1076]: the EC50 under setting [1] is less than 1 nM.

On to `COC(=O)N[C@H](C(=O)N1CCC[C@H]1c1ncc(-c2ccc(C#Cc3ccc4nc([C@@H]5CCCN5C(=O)[C@@H](NC(=O)OC)[C@@H](C)OC)[nH]c4c3)cc2)[nH]1)C(C)C` [Compound 1242], for which the EC50 under setting [2] was less than 1 nM.

`COC(=O)N[C@@H](C(=O)N1CCC[C@H]1c1ncc(-c2ccc(C#Cc3ccc(-c4cnc([C@@H]5CCCN5C(=O)C5(c6ccccc6)CC5)[nH]4)cc3)cc2)[nH]1)c1ccccc1` [Compound 257]: the EC50 under setting [1] was less than 1 nM.

Consider `COC(=O)N[C@@H](C(=O)N1CCC[C@H]1c1ncc(-c2ccc(C#Cc3ccc(-c4cnc([C@@H]5CCCN5C(=O)[C@H](NC(=O)OC)C(C)C)[nH]4)cc3)cc2)[nH]1)C(C)C` [Compound 292], for which, under setting [1], the EC50 is greater than 1000 nM.

As for `COC(=O)N[C@H](C(=O)N1CCC[C@H]1c1ncc(-c2ccc(C#Cc3ccc(-c4cnc([C@@H]5CCCN5C(=O)[C@H](NC(=O)N5CCC(C)(O)CC5)c5ccccc5)[nH]4)cc3)cc2)[nH]1)C(C)C` [Compound 992], the EC50 under setting [1] was less than 1 nM.

On to `CCN(CC)C(=O)c1cc(-c2cnc([C@@H]3CCCN3C(=O)[C@@H](NC(=O)OC)C(C)C)[nH]2)ccc1C#Cc1ccc(-c2cnc([C@@H]3CCCN3C(=O)[C@@H](NC(=O)OC)C(C)C)[nH]2)cc1` [Compound 1209], for which, under setting [2], the EC50 was less than 1 nM.

In the case of `COC(=O)N[C@@H](C(=O)N1CCC[C@H]1c1ncc(-c2ccc(C#Cc3ccc(-c4cnc([C@@H]5CCCN5C(=O)[C@@H](c5ccccc5)N5CCOCC5)[nH]4)cc3)cc2)[nH]1)c1ccccc1` [Compound 185], the EC50 under setting [1] is less than 1 nM.

Consider `CCC(CC)[C@H](NC(=O)OC)C(=O)N1CCC[C@H]1c1ncc(-c2ccc(C#Cc3ccc4nc([C@@H]5CCCN5C(=O)[C@@H](NC(=O)OC)C(CC)CC)[nH]c4c3)cc2)[nH]1` [Compound 1030], for which the EC50 under setting [1] was less than 1 nM.

Regarding `COC(=O)N[C@@H](C(=O)N1CCC[C@H]1c1ncc(C#Cc2ccc(-c3ccc(-c4cnc([C@@H]5CCCN5C(=O)[C@@H](c5ccccc5)N5CCOCC5)[nH]4)cc3)cc2)[nH]1)c1ccccc1` [Compound 758], the EC50 under setting [1] is less than 1 nM.

On to `CC(C)OC(=O)N[C@@H](C(=O)N1CCC[C@H]1c1ncc(-c2ccc(C#Cc3ccc(-c4cnc([C@@H]5CCCN5C(=O)[C@H](NC(=O)OC(C)C)c5ccccc5)[nH]4)cc3)cc2)[nH]1)c1ccccc1` [Compound 227], for which the EC50 under setting [1] is less than 1 nM.

In the case of `COC(=O)N[C@H](C(=O)N1CCC[C@H]1c1ncc(-c2ccc(C#Cc3ccc(-c4cnc([C@@H]5CCCN5C(=O)[C@@H](c5ccccc5)N5CCCCC5)[nH]4)cc3)cc2)[nH]1)C(C)C` [Compound 986], the EC50 under setting [1] is less than 1 nM.

On to `COC(=O)N[C@H](C(=O)N1CCC[C@H]1c1nc2c([nH]1)-c1ccc(C#Cc3ccc4nc([C@@H]5CCCN5C(=O)[C@H](NC(=O)OC5CCOCC5)c5ccccc5)[nH]c4c3)cc1CC2)C(C)C` [Compound 1104], for which the EC50 under setting [1] is less than 1 nM.

In the case of `COC(=O)N[C@@H](C(=O)N1CCC[C@H]1c1ncc(-c2ccc(C#Cc3ccc(-c4cnc([C@@H]5CCCN5C(=O)NCc5ccccc5)[nH]4)cc3)cc2)[nH]1)c1ccccc1` [Compound 197], under setting [1], the EC50 was less than 1 nM.

Take `COC(=O)N[C@H](C(=O)N1CCC[C@H]1c1nc2c([nH]1)-c1ccc(C#Cc3ccc(-c4cnc([C@@H]5CCCN5C(=O)[C@@H](NC(=O)OC)C5CCOCC5)[nH]4)cc3)cc1CCC2)C(C)C` [Compound 1097]: the EC50 under setting [1] is less than 1 nM.

`COC(=O)N[C@H](C(=O)N1CCC[C@H]1c1ncc(-c2ccc(C#Cc3ccc(-c4cnc([C@@H]5CCCN5C(=O)[C@@H](Nc5cccnc5)C(C)C)[nH]4)cc3)cc2)[nH]1)C(C)C` [Compound 995]: the EC50 under setting [1] was less than 1 nM.

As for `COC(=O)N[C@@H](C(=O)N1CCC[C@H]1c1cc(-c2ccc(C#Cc3ccc(-c4cnc([C@@H]5CCCN5C(=O)[C@H](NC(=O)OC)c5ccccc5)[nH]4)cc3)cc2)n[nH]1)c1ccccc1` [Compound 219], the EC50 under setting [1] was less than 1 nM.

With `COC(=O)N[C@H](C(=O)N1CCC[C@H]1c1nc2ccc3cc(C#Cc4ccc(-c5cnc([C@@H]6CCCN6C(=O)[C@H](NC(=O)OC)c6ccccc6)[nH]5)cc4)ccc3c2[nH]1)C(C)C` [Compound 1093], the EC50 under setting [1] is less than 1 nM.

Consider `COC(=O)N[C@H](C(=O)N1CCC[C@H]1c1nc(-c2cnc3cc(C#Cc4ccc(-c5cnc([C@@H]6CCCN6C(=O)[C@@H](NC(=O)OC)C(C)C)[nH]5)cc4)ccc3c2)c[nH]1)C(C)C` [Compound 1088], for which, under setting [1], the EC50 was 1 to 9.9 nM.

Take `COC(=O)N[C@@H](C(=O)N1CCC[C@H]1c1ncc(-c2ccc(C#Cc3ccc(-c4cnc([C@@H]5CCCN5C(=O)[C@H]5CCCO5)[nH]4)cc3)cc2)[nH]1)c1ccccc1` [Compound 177]: under setting [1], the EC50 is less than 1 nM.

On to `COC(=O)N[C@@H](C(=O)N1CCC[C@H]1c1ncc(-c2ccc(C#Cc3ccc(-c4cnc([C@@H]5CCCN5C(=O)[C@H](NC(=O)OC)c5ccccc5)[nH]4)cc3C(=O)OC)cc2)[nH]1)c1ccccc1` [Compound 1201], for which, under setting [2], the EC50 was less than 1 nM.

Turning to `CC[C@H](NC(=O)OC)C(=O)N1CCC[C@H]1c1ncc(-c2ccc(C#Cc3ccc4nc([C@@H]5CCCN5C(=O)[C@@H](NC(=O)OC)[C@@H](C)OC)[nH]c4c3)cc2)[nH]1` [Compound 1247], under setting [2], the EC50 was less than 1 nM.

As to `COC[C@@H]1CCCN1C(=O)N[C@@H](C(=O)N1CCC[C@H]1c1ncc(-c2ccc(C#Cc3ccc(-c4cnc([C@@H]5CCCN5C(=O)[C@H](NC(=O)OC)c5ccccc5)[nH]4)cc3)cc2)[nH]1)c1ccccc1` [Compound 260], the EC50 under setting [1] was less than 1 nM.

On to `CC[C@H](NC(=O)OC)C(=O)N1CCC[C@H]1c1ncc(-c2ccc(C#Cc3ccc4nc([C@@H]5CCCN5C(=O)[C@H](CC)NC(=O)OC)[nH]c4c3)cc2)[nH]1` [Compound 1036], for which the EC50 under setting [1] was less than 1 nM.

Take `COC(=O)N[C@@H](C(=O)N1CCC[C@H]1c1ncc(-c2ccc(C#Cc3ccc(-c4cnc([C@@H]5CCCN5C(=O)[C@H](NC(=O)N5CC[C@H](OC)C5)c5ccccc5)[nH]4)cc3)cc2)[nH]1)c1ccccc1` [Compound 272]: under setting [1], the EC50 is less than 1 nM.

In the case of `COC(=O)N[C@@H](C(=O)N1CCC[C@H]1c1ncc(-c2ccc(C#Cc3ccc(-c4cnc([C@@H]5CCCN5C(=O)[C@H](NC(=O)N5CCN(C)CC5)c5ccccc5)[nH]4)cc3)cc2)[nH]1)c1ccccc1` [Compound 240], the EC50 under setting [1] was less than 1 nM.

Consider `COC(=O)N[C@H](C(=O)N[C@@H](C)c1ncc(-c2ccc(C#Cc3ccc(-c4cnc([C@H](C)NC(=O)[C@@H](NC(=O)OC)C(C)C)[nH]4)cc3)cc2)[nH]1)C(C)C` [Compound 951], for which the EC50 under setting [1] was less than 1 nM.

For the compound `CC(C)[C@H](NC(=O)N1CCC(C)(O)CC1)C(=O)N1CCC[C@H]1c1ncc(-c2ccc(C#Cc3ccc(-c4cnc([C@@H]5CCCN5C(=O)[C@@H](NC(=O)N5CCC(C)(O)CC5)C(C)C)[nH]4)cc3)cc2)[nH]1` [Compound 966], under setting [1], the EC50 is 10 to 999 nM.

As to `COC(=O)N[C@@H](CC(=O)N1CCC[C@H]1c1ncc(-c2ccc(C#Cc3ccc4nc([C@@H]5CCCN5C(=O)C[C@H](NC(=O)OC)C(C)C)[nH]c4c3)cc2)[nH]1)C(C)C` [Compound 1064], under setting [1], the EC50 is 10 to 999 nM.

With `COC(=O)N[C@@H](C(=O)N1CCC[C@H]1c1ncc(-c2ccc(C#Cc3ccc(C(=O)NC[C@@H]4CCCN4C(=O)[C@@H](c4ccccc4)N4CCCCC4)cc3)cc2)[nH]1)c1ccccc1` [Compound 233], the EC50 under setting [1] is less than 1 nM.

Turning to `COC(=O)N[C@H](C(=O)N1CCC[C@H]1c1ncc(-c2ccc(C#Cc3ccc4nc([C@@H]5CCCN5C(=O)[C@@H](NC(=O)OC)C5CCCOC5)[nH]c4c3)cc2)[nH]1)C(C)C` (stereo partly drawn) [Compound 1244], the EC50 under setting [2] is less than 1 nM.

`COC(=O)N[C@H](C(=O)N[C@@H](C)c1ncc(-c2ccc(C#Cc3ccc(-c4cnc([C@H](C)NC(=O)[C@@H](NC(=O)OC)[C@@H](C)O)[nH]4)cc3)cc2)[nH]1)[C@@H](C)O` [Compound 969]: the EC50 under setting [1] is less than 1 nM.

On to `COC(=O)N[C@@H](CCC(N)=O)C(=O)N1CCC[C@H]1c1ncc(-c2ccc(C#Cc3ccc4nc([C@@H]5CCCN5C(=O)[C@H](CCC(N)=O)NC(=O)OC)[nH]c4c3)cc2)[nH]1` [Compound 1051], for which the EC50 under setting [1] lay within 1 to 9.9 nM.
